Measurements as given in ChEMBL document CHEMBL2202954, “The effect of PLC-γ2 inhibitors on the growth of human tumour cells” (2012).

What was measured:
Assay type in all cases: functional
A549 = test: Cytotoxicity against human A549 cells assessed as cellular growth at 10 uM by SRB assay
HOP-62 = test: Cytotoxicity against human HOP62 cells assessed as cellular growth at 10 uM by SRB assay
MDA-MB-231 = test: Cytotoxicity against human MDA-MB-231 cells assessed as cellular growth at 10 uM by SRB assay
OVCAR-5 = test: Cytotoxicity against human OVCAR5 cells assessed as cellular growth at 10 uM by SRB assay
OVCAR-4 = test: Cytotoxicity against human OVCAR4 cells assessed as cellular growth at 10 uM by SRB assay
Malme-3M = test: Cytotoxicity against human MALME-3M cells assessed as cellular growth at 10 uM by SRB assay
DU-145 = test: Cytotoxicity against human DU145 cells assessed as cellular growth at 10 uM by SRB assay
NCI-H460 = test: Cytotoxicity against human NCI-H460 cells assessed as cellular growth at 10 uM by SRB assay
MDA-MB-468 = test: Cytotoxicity against human MDA-MB-468 cells assessed as cellular growth at 10 uM by SRB assay
MDA-MB-435 = test: Cytotoxicity against human MDA-MB-435 cells assessed as cellular growth at 10 uM by SRB assay
HOP-92 = test: Cytotoxicity against human HOP92 cells assessed as cellular growth at 10 uM by SRB assay
SK-MEL-5 = test: Cytotoxicity against human SK-MEL-5 cells assessed as cellular growth at 10 uM by SRB assay
SK-OV-3 = test: Cytotoxicity against human SKOV3 cells assessed as cellular growth at 10 uM by SRB assay
SK-MEL-2 = test: Cytotoxicity against human SK-MEL-2 cells assessed as cellular growth at 10 uM by SRB assay
IGROV-1 = test: Cytotoxicity against human IGROV1 cells assessed as cellular growth at 10 uM by SRB assay
OVCAR-8 = test: Cytotoxicity against human OVCAR8 cells assessed as cellular growth at 10 uM by SRB assay
COLO 205 = test: Cytotoxicity against human COLO205 cells assessed as cellular growth at 10 uM by SRB assay
HCT-116 = test: Cytotoxicity against human HCT116 cells assessed as cellular growth at 10 uM by SRB assay
K562 = test: Cytotoxicity against human K562 cells assessed as cellular growth at 10 uM by SRB assay
MOLT-4 = test: Cytotoxicity against human MOLT4 cells assessed as cellular growth at 10 uM by SRB assay

O=C(Nc1nc2ccccc2s1)c1ccc(F)cc1
Activity (A549): 98.36%
Activity (HOP-62): 106.04%
Activity (MDA-MB-231): 95.53%
Activity (OVCAR-5): 100.92%
Activity (OVCAR-4): 85.42%
Activity (Malme-3M): 96.2%
Activity (DU-145): 108.3%
Activity (NCI-H460): 69.18%
Activity (MDA-MB-468): 94.15%
Activity (MDA-MB-435): 100.56%
Activity (HOP-92): 78.65%
Activity (SK-MEL-5): 91.3%
Activity (SK-OV-3): 108.36%
Activity (SK-MEL-2): 113.78%
Activity (IGROV-1): 88.87%
Activity (OVCAR-8): 109.5%
Activity (COLO 205): 117.74%
Activity (HCT-116): 92.81%
Activity (K562): 89.96%
Activity (MOLT-4): 100.31%

O=C(NCCc1ccc(Cl)cc1)c1[nH]c2ccccc2c1Cl
Activity (A549): 92.96%
Activity (HOP-62): 85.04%
Activity (MDA-MB-231): 95.77%
Activity (OVCAR-5): 117.9%
Activity (OVCAR-4): 89.13%
Activity (Malme-3M): 107.52%
Activity (DU-145): 101.11%
Activity (NCI-H460): 93.16%
Activity (MDA-MB-468): 108.58%
Activity (MDA-MB-435): 98.17%
Activity (HOP-92): 81.73%
Activity (SK-MEL-5): 95.47%
Activity (SK-OV-3): 86.84%
Activity (SK-MEL-2): 130.7%
Activity (IGROV-1): 93.76%
Activity (OVCAR-8): 96.34%
Activity (COLO 205): 97.59%
Activity (HCT-116): 98.39%
Activity (K562): 67.44%
Activity (MOLT-4): 77.08%

O=C1N=C(c2ccccc2)S/C1=C\c1ccc2c(c1)OCO2
Activity (A549): 95.78%
Activity (HOP-62): 94.43%
Activity (MDA-MB-231): 104.95%
Activity (OVCAR-5): 92.58%
Activity (OVCAR-4): 100.96%
Activity (Malme-3M): 94.49%
Activity (DU-145): 102.97%
Activity (NCI-H460): 96.54%
Activity (MDA-MB-468): 98.71%
Activity (MDA-MB-435): 103.92%
Activity (HOP-92): 71.22%
Activity (SK-MEL-5): 96.34%
Activity (SK-OV-3): 98.47%
Activity (SK-MEL-2): 110.33%
Activity (IGROV-1): 101.91%
Activity (OVCAR-8): 96.76%
Activity (COLO 205): 101.56%
Activity (HCT-116): 104.4%
Activity (K562): 73.5%
Activity (MOLT-4): 109.24%

Cc1c(OCC(=O)c2ccccc2)ccc2c1oc(=O)c1ccccc12
Activity (A549): 93.47%
Activity (HOP-62): 105.3%
Activity (MDA-MB-231): 104.28%
Activity (OVCAR-5): 108.12%
Activity (OVCAR-4): 106.31%
Activity (Malme-3M): 120.27%
Activity (DU-145): 106.9%
Activity (NCI-H460): 100.87%
Activity (MDA-MB-468): 62.01%
Activity (MDA-MB-435): 98.4%
Activity (HOP-92): 103.71%
Activity (SK-MEL-5): 97.8%
Activity (SK-OV-3): 101.55%
Activity (SK-MEL-2): 125.14%
Activity (IGROV-1): 115.73%
Activity (OVCAR-8): 99.11%
Activity (COLO 205): 117.2%
Activity (HCT-116): 107.52%
Activity (K562): 100.66%
Activity (MOLT-4): 90.5%
